Laboratory results as given in ChEMBL document CHEMBL1136831, “CRF ligands via Suzuki and Negishi couplings of 3-pyridyl boronic acids or halides with 2-benzyloxy-4-chloro-3-nitropyridine” (Bioorg Med Chem Lett, 2003).

Target: Corticotropin releasing factor receptor (Rattus norvegicus, UniProt P47866+P35353)
Experiment: Binding affinity at Corticotropin releasing factor receptor of rat cortical homogenates.

Compound | Ki
CCc1nc2c(-c3ccc(OC)nc3C)ccnc2n1C(C)C1CCC1 (stereo not drawn) | 2.1 nM
CCCC(C)n1c(CC)nc2c(-c3ccc(Cl)nc3C)ccnc21 (stereo not drawn) | 6.6 nM
CCc1nc2c(-c3ccc(OC)nc3C)ccnc2n1C(C)C1CC1 (stereo not drawn) | 2 nM
CCc1nc2c(-c3ccc(OC)nc3C(F)(F)F)ccnc2n1C(CC)CCOC (stereo not drawn) | 1.6 nM
CCc1nc2c(-c3ccc(OC)cc3C)ccnc2n1C(CC)C1CC1 (stereo not drawn) | 0.5 nM
CCCC(C)n1c(CC)nc2c(-c3cnc(OC)cc3C)ccnc21 (stereo not drawn) | 17.1 nM
CCc1nc2c(-c3ccc(OC)nc3C)ccnc2n1C(C)CC (stereo not drawn) | 9.2 nM
CCc1nc2c(-c3ccc(OC)cc3C)ncnc2n1C(C1CC1)C1CC1 | 1.9 nM
CCc1nc2c(-c3ccc(OC)nc3C(F)(F)F)ccnc2n1C(CC)C1CC1 (stereo not drawn) | 0.7 nM
CCCC(C)n1c(CC)nc2c(-c3ccc(OCCO)nc3C(F)(F)F)ccnc21 (stereo not drawn) | 10.1 nM
CCCC(C)n1c(CC)nc2c(-c3ccc(OC)nc3C)ccnc21 (stereo not drawn) | 1.1 nM
CCc1nc2c(-c3ccc(N(C)C)nc3C)ccnc2n1C(CC)C1CC1 (stereo not drawn) | 7.5 nM
CCCC(C)n1c(CC)nc2c(-c3ccc(O)nc3C(F)(F)F)ccnc21 (stereo not drawn) | 602 nM
CCc1nc2c(-c3ccc(OC)nc3C)ncnc2n1C(C1CC1)C1CC1 | 1.8 nM
CCc1nc2c(-c3ccc(OC)nc3C(F)(F)F)ccnc2n1C(C)CC (stereo not drawn) | 0.7 nM
CCc1nc2c(-c3ccc(OC)nc3C(F)(F)F)ccnc2n1C(C)C1CCC1 (stereo not drawn) | 0.8 nM
CCCC(C)n1c(CC)nc2c(-c3ccc(O)nc3C)ccnc21 (stereo not drawn) | > 10000 nM
CCc1nc2c(-c3ccc(Cl)nc3C)ccnc2n1C(CC)C1CC1 (stereo not drawn) | 3.3 nM
